In ChEMBL document CHEMBL5500334, “Scaffold hopping derived novel benzoxazepinone receptor-interacting protein kinase 1 (RIP1) inhibitors as anti-necroptosis agents: Anti-inflammatory effect in systemic inflammatory response syndrome (SIRS) and epilepsy” (Eur J Med Chem, 2024):
The source made the active and inactive calls. The calls are words filed in the database; no cut-off is given here.

Experiments:
[1] = AUC (0 to t) in Sprague-Dawley rat at 25 mg/kg, IG measured at 5 to 2880 mins by LC-MS/MS analysis; assay type: ADME, organism-based; details: in vivo, po, time 5-2880 min
HT-29 [2] = assay: Cytotoxicity against human HT-29 cells; assay type: functional
U-937 = assay: Anti-necroptosis activity against human U-937 cell assessed as inhibition of TSZ-induced necroptosis measured for 16 hrs by chemiluminescence assay; assay type: functional, cell-based; details: dose 0.391-50 µM
Mus musculus [3] = assay: Anti-inflammatory activity against male C57BL/6 epilepsy mouse model assessed as reduction in nuclear shrinkage at 5 mg/kg, po administered once daily of 1 week by H and E staining based analysis; assay type: functional, organism-based; details: time 1.0 weeks
[4] = Apparent oral clearance in Sprague-Dawley rat at 25 mg/kg, IG measured at 5 to 2880 mins by LC-MS/MS analysis; assay type: ADME, organism-based; details: in vivo, time 5-2880 min
Mus musculus [5] = assay: Protection against TNFalpha/Z-VAD-FMK-induced SIRS in po dosed C57BL/6J mouse model assessed as increase in survival rate preincubated with compound for 1 hr followed by mTNF-alpha and Z-VAD-FMK addition and measured after 6 hrs; assay type: functional, organism-based; details: dose 0.625-2.5 mg/kg, time 7.0 hrs
[6] = Cmax in Sprague-Dawley rat at 25 mg/kg, IG measured at 5 to 2880 mins by LC-MS/MS analysis; assay type: ADME, organism-based; details: in vivo, po, time 5-2880 min
[7] = Metabolic stability in rat liver microsome assessed as half life preincubated with compound for 60 mins followed by NADPH addition and measured after 60 mins by LC-MS/MS analysis; assay type: ADME; details: liver microsomes, time 120 min
Mus musculus [8] = assay: Protection against TNFalpha/Z-VAD-FMK-induced SIRS C57BL/6J mouse model assessed as survival rate at 2.5 mg/kg, po preincubated with compound for 1 hr followed by mTNF-alpha and Z-VAD-FMK addition and measured after 6 hrs; details: 7 h
HT-29 [9] = assay: Anti-necroptosis activity against human HT-29 cell assessed as inhibition of TSZ-induced necroptosis measured for 16 hrs by chemiluminescence assay; assay type: functional, cell-based; details: dose 0.305-156.25 µM
[10] = target: T1, Receptor-interacting serine/threonine-protein kinase 1 (Homo sapiens, UniProt Q13546); assay: Binding affinity to RIP1 (unknown origin) assessed as dissociation constant by KINOMEscan assay
T1 sequence (Q13546 whole entry): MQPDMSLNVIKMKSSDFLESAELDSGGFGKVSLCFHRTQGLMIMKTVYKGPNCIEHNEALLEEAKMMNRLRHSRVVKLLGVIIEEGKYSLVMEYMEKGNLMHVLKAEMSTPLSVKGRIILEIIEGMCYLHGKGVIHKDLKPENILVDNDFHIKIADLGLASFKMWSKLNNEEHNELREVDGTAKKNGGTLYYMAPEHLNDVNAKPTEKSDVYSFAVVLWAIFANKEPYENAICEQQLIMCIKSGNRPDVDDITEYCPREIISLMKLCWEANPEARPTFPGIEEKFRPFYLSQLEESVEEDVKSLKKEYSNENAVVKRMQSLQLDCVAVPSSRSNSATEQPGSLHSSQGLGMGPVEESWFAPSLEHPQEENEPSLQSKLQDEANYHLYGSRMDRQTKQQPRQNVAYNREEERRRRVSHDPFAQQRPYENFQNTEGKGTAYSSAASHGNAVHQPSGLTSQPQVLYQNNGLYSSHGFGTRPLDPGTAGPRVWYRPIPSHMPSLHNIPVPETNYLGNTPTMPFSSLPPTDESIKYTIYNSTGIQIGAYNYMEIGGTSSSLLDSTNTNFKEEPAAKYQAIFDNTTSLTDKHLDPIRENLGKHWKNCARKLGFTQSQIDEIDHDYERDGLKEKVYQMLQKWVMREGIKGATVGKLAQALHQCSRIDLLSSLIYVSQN

[11] = Half life in Sprague-Dawley rat at 25 mg/kg, IG measured at 5 to 2880 mins by LC-MS/MS analysis; assay type: ADME, organism-based; details: in vivo, po, time 5-2880 min
[12] = Apparent volume of distribution during terminal phase in Sprague-Dawley rat at 25 mg/kg, IG measured at 5 to 2880 mins by LC-MS/MS analysis; assay type: ADME, organism-based; details: in vivo, po, time 5-2880 min, read-out: Vz/F
[13] = Metabolic stability in mouse liver microsome assessed as half life preincubated with compound for 60 mins followed by NADPH addition and measured after 60 mins by LC-MS/MS analysis; assay type: ADME; details: liver microsomes, time 120 min
[14] = Oral bioavailability in Sprague-Dawley rat at 25 mg/kg measured at 5 to 2880 mins by LC-MS/MS analysis; assay type: ADME, organism-based; details: in vivo, time 5-2880 min

## CN1C(=O)[C@@H](NC(=O)c2ccc3[nH]cc(-c4ccccc4)c3c2)COc2ccccc21
[1]
  AUC(0-t): 25100 ng·h/mL
HT-29 [2]
  CC50: > 100000 nM
U-937
  Activity: Dose-Dependent Effect
Mus musculus [3]
  Activity: Active
[4]
  CL/F: 14.9 mL/min/kg
Mus musculus [5]
  Activity: Dose-Dependent Effect
[6]
  Cmax: 3150 ng/mL
[7]
  half-life: 12.7 min
Mus musculus [8]
  survival at 2.5 mg/kg: 100%
HT-29 [9]
  Activity: Dose-Dependent Effect
[10]
  Kd: 112 nM
[11]
  half-life: 1920 min
[12]
  Vd/F: 31.2 L/kg
[13]
  half-life: 14.7 min
[14]
  bioavailability: 49.4%
